Literature values as cited in patent US5935597A, “Drug delivery devices and methods for treatment of viral and microbial infections and wasting syndromes” (Cryopreservation Technologies CC, priority 1995, dated 1999).

How the values were obtained:
[1] = test system: human cancer; settings: cited from earlier work
[2] = test system: HIV; settings: certain cultured cell lines; cited from earlier work
[3] = test system: Human Herpes Virus 6 (HHV-6); settings: certain cultured cell lines; cited from earlier work
[4] = test system: human cancer xenografts; settings: intraperitoneal injection, nude mice; cited from earlier work
[5] = test system: HIV; settings: cited from earlier work
[6] = appetite enhancers, wasting syndromes; cited from earlier work
[7] = test system: mouse sarcoma allograft; settings: in vivo; cited from earlier work
[8] = test system: HIV-1; settings: cells infected with HIV-1 isolates, in vitro; cited from earlier work
[9] = test system: HIV-2; settings: cells infected with HIV-2 isolates, in vitro; cited from earlier work

For C[S+](C)[O-] [DMSO, dimethylsulfoxide], the objective response ([1]; human cancer patients) is listed as “no objective response”, the “in vitro replication of HIV” value [2] is listed as “inhibit in vitro replication of HIV” and the “in vitro replication of HHV-6” value [3] is listed as “inhibit in vitro replication of HIV and Human Herpes Virus 6 (HHV-6)”.

For CNC=O [NMF, N-methylformamide], the anticancer activity ([1]; oral, human patients with cancer of the head and neck (Planting et al.)) is given as “only minimal activity”, the hepatotoxicity and response ([1]; oral, human patients with cancer of the head and neck (Vogel et al.)) is given as “hepatotoxicity with no beneficial response” and the “growth of human cancer xenografts” value [4] is given as “slow the growth of certain human cancer xenografts”.

For Cc1cn([C@H]2C=C[C@@H](CO)O2)c(=O)[nH]c1=O [d4T, stavudine], the anti-HIV activity [5] is given as “active against HIV”.

In the case of CCCCCc1cc(O)c2c(c1)OC(C)(C)[C@@H]1CCC(C)=C[C@@H]21 [dronabinol], the weight gain [6] is listed as “tended to gain only fat and not overall body mass”.

In the case of NC=O [formamide], the toxicity [7] is given as “toxic side-effects”.

In the case of CC(=O)O[C@]1(C(C)=O)CC[C@H]2[C@@H]3C=C(C)C4=CC(=O)CC[C@]4(C)[C@H]3CC[C@@]21C [megestrol acetate], the weight gain [6] is listed as “tended to gain only fat and not overall body mass”.

B1: MIP-1α: chemokine secreted by CD8+ T cells (protein, UniProt P10147 24-92, looked up)
C-C motif chemokine 3: SLAADTPTACCFSYTSRQIPQNFIADYFETSSQCSKPGVIFLTKRSRQVCADPSEEWVQKYVSDLELSA
In the case of B1, the “HIV-1 p24 antigen production” value [8] is given as “suppress HIV-1 p24 antigen production” and the “HIV-1 p24 antigen production” value [9] is given as “suppress HIV-1 p24 antigen production”.

B2: MIP-1β: chemokine secreted by CD8+ T cells (protein, UniProt P13236 24-92, looked up)
C-C motif chemokine 4: APMGSDPPTACCFSYTARKLPRNFVVDYYETSSLCSQPAVVFQTKRSKQVCADPSESWVQEYVYDLELN
modifications: ends and bridges not checked
notes: chemokine secreted by CD8+ T cells
For B2, the “HIV-1 p24 antigen production” value [8] is listed as “suppress HIV-1 p24 antigen production” and the “HIV-1 p24 antigen production” value [9] is listed as “suppress HIV-1 p24 antigen production”.

B3: RANTES: chemokine secreted by CD8+ T cells (protein, UniProt P13501 24-91, looked up)
C-C motif chemokine 5: SPYSSDTTPCCFAYIARPLPRAHIKEYFYTSGKCSNPAVVFVTRKNRQVCANPEKKWVREYINSLEMS
In the case of B3, the “HIV-1 p24 antigen production” value [8] is listed as “suppress HIV-1 p24 antigen production” and the “HIV-1 p24 antigen production” value [9] is listed as “suppress HIV-1 p24 antigen production”.
